{
  "source": "PubChem BioAssay (NCI)",
  "experiment_in_all_cases": "growth of human tumour cells (NCI), 48 h",
  "key": {"786-0 renal": {"tested_on": "786-0 renal"}, "A498 renal": {"tested_on": "A498 renal"}, "A549 NSCLC": {"tested_on": "A549 NSCLC"}, "ACHN renal": {"tested_on": "ACHN renal"}, "CAKI-1 renal": {"tested_on": "CAKI-1 renal"}, "CCRF-CEM leukemia": {"tested_on": "CCRF-CEM leukemia"}, "COLO 205 colon": {"tested_on": "COLO 205 colon"}, "DLD-1 colon": {"tested_on": "DLD-1 colon"}, "DMS 273 small cell lung": {"tested_on": "DMS 273 small cell lung"}, "EKVX NSCLC": {"tested_on": "EKVX NSCLC"}, "HCC-2998 colon": {"tested_on": "HCC-2998 colon"}, "HCT-116 colon": {"tested_on": "HCT-116 colon"}, "HCT-15 colon": {"tested_on": "HCT-15 colon"}, "HL-60(TB) leukemia": {"tested_on": "HL-60(TB) leukemia"}, "HOP-18 NSCLC": {"tested_on": "HOP-18 NSCLC"}, "HOP-62 NSCLC": {"tested_on": "HOP-62 NSCLC"}, "HOP-92 NSCLC": {"tested_on": "HOP-92 NSCLC"}, "HT29 colon": {"tested_on": "HT29 colon"}, "IGROV1 ovarian": {"tested_on": "IGROV1 ovarian"}, "K-562 leukemia": {"tested_on": "K-562 leukemia"}, "KM12 colon": {"tested_on": "KM12 colon"}, "KM20L2 colon": {"tested_on": "KM20L2 colon"}, "LOX IMVI melanoma": {"tested_on": "LOX IMVI melanoma"}, "LXFL 529 NSCLC": {"tested_on": "LXFL 529 NSCLC"}, "M14 melanoma": {"tested_on": "M14 melanoma"}, "M19-MEL melanoma": {"tested_on": "M19-MEL melanoma"}, "MALME-3M melanoma": {"tested_on": "MALME-3M melanoma"}, "MOLT-4 leukemia": {"tested_on": "MOLT-4 leukemia"}, "NCI-H226 lung": {"tested_on": "NCI-H226 lung"}, "NCI-H23 lung": {"tested_on": "NCI-H23 lung"}, "NCI-H460 lung": {"tested_on": "NCI-H460 lung"}, "NCI-H522 lung": {"tested_on": "NCI-H522 lung"}, "OVCAR-3 ovarian": {"tested_on": "OVCAR-3 ovarian"}, "OVCAR-4 ovarian": {"tested_on": "OVCAR-4 ovarian"}, "OVCAR-5 ovarian": {"tested_on": "OVCAR-5 ovarian"}, "OVCAR-8 ovarian": {"tested_on": "OVCAR-8 ovarian"}, "RPMI-8226 leukemia": {"tested_on": "RPMI-8226 leukemia"}, "RXF 393 renal": {"tested_on": "RXF 393 renal"}, "RXF-631 renal": {"tested_on": "RXF-631 renal"}, "SF-268 CNS": {"tested_on": "SF-268 CNS"}, "SF-295 CNS": {"tested_on": "SF-295 CNS"}, "SF-539 CNS": {"tested_on": "SF-539 CNS"}, "SK-MEL-2 melanoma": {"tested_on": "SK-MEL-2 melanoma"}, "SK-MEL-28 melanoma": {"tested_on": "SK-MEL-28 melanoma"}, "SK-MEL-5 melanoma": {"tested_on": "SK-MEL-5 melanoma"}, "SN12C renal": {"tested_on": "SN12C renal"}, "SNB-19 CNS": {"tested_on": "SNB-19 CNS"}, "SNB-75 CNS": {"tested_on": "SNB-75 CNS"}, "SNB-78 CNS": {"tested_on": "SNB-78 CNS"}, "SR leukemia": {"tested_on": "SR leukemia"}, "SW-620 colon": {"tested_on": "SW-620 colon"}, "TK-10 renal": {"tested_on": "TK-10 renal"}, "U251 CNS": {"tested_on": "U251 CNS"}, "UACC-257 melanoma": {"tested_on": "UACC-257 melanoma"}, "UACC-62 melanoma": {"tested_on": "UACC-62 melanoma"}, "UO-31 renal": {"tested_on": "UO-31 renal"}, "XF 498 CNS": {"tested_on": "XF 498 CNS"}},
  "note": "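Compound exposure: 48 hours, 5 concentrations, 96-well plates. TGI marks complete inhibition of growth.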",
  "data": [
    {"smiles": "NCCCN(CCCN)CCCNCc1c2ccccc2c(CNCCCN(CCCN)CCCN)c2ccccc12", "values": [
      {"measurement": "TGI", "setting": "786-0 renal", "value": 23.4, "unit": "µM"},
      {"measurement": "TGI", "setting": "A498 renal", "value": 60.2, "unit": "µM"},
      {"measurement": "TGI", "setting": "A549 NSCLC", "value": "> 100", "unit": "µM"},
      {"measurement": "TGI", "setting": "ACHN renal", "value": 25.7, "unit": "µM"},
      {"measurement": "TGI", "setting": "CAKI-1 renal", "value": 32.7, "unit": "µM"},
      {"measurement": "TGI", "setting": "CCRF-CEM leukemia", "value": "> 100", "unit": "µM"},
      {"measurement": "TGI", "setting": "COLO 205 colon", "value": 22.5, "unit": "µM"},
      {"measurement": "TGI", "setting": "DLD-1 colon", "value": 28.8, "unit": "µM"},
      {"measurement": "TGI", "setting": "DMS 273 small cell lung", "value": 17, "unit": "µM"},
      {"measurement": "TGI", "setting": "EKVX NSCLC", "value": 28.4, "unit": "µM"},
      {"measurement": "TGI", "setting": "HCC-2998 colon", "value": 20.1, "unit": "µM"},
      {"measurement": "TGI", "setting": "HCT-116 colon", "value": 47.9, "unit": "µM"},
      {"measurement": "TGI", "setting": "HCT-15 colon", "value": 28.6, "unit": "µM"},
      {"measurement": "TGI", "setting": "HL-60(TB) leukemia", "value": 38, "unit": "µM"},
      {"measurement": "TGI", "setting": "HOP-18 NSCLC", "value": 20.7, "unit": "µM"},
      {"measurement": "TGI", "setting": "HOP-62 NSCLC", "value": 32.9, "unit": "µM"},
      {"measurement": "TGI", "setting": "HOP-92 NSCLC", "value": 89.1, "unit": "µM"},
      {"measurement": "TGI", "setting": "HT29 colon", "value": 37.5, "unit": "µM"},
      {"measurement": "TGI", "setting": "IGROV1 ovarian", "value": 28.1, "unit": "µM"},
      {"measurement": "TGI", "setting": "K-562 leukemia", "value": "> 100", "unit": "µM"},
      {"measurement": "TGI", "setting": "KM12 colon", "value": 14, "unit": "µM"},
      {"measurement": "TGI", "setting": "KM20L2 colon", "value": 47.8, "unit": "µM"},
      {"measurement": "TGI", "setting": "LOX IMVI melanoma", "value": 42, "unit": "µM"},
      {"measurement": "TGI", "setting": "LXFL 529 NSCLC", "value": 22.6, "unit": "µM"},
      {"measurement": "TGI", "setting": "M14 melanoma", "value": 28.5, "unit": "µM"},
      {"measurement": "TGI", "setting": "M19-MEL melanoma", "value": 20.4, "unit": "µM"},
      {"measurement": "TGI", "setting": "MALME-3M melanoma", "value": 22.4, "unit": "µM"},
      {"measurement": "TGI", "setting": "MOLT-4 leukemia", "value": 69.8, "unit": "µM"},
      {"measurement": "TGI", "setting": "NCI-H226 lung", "value": "> 100", "unit": "µM"},
      {"measurement": "TGI", "setting": "NCI-H23 lung", "value": 85.6, "unit": "µM"},
      {"measurement": "TGI", "setting": "NCI-H460 lung", "value": 29.2, "unit": "µM"},
      {"measurement": "TGI", "setting": "NCI-H522 lung", "value": 26.1, "unit": "µM"},
      {"measurement": "TGI", "setting": "OVCAR-3 ovarian", "value": 38.6, "unit": "µM"},
      {"measurement": "TGI", "setting": "OVCAR-4 ovarian", "value": 34, "unit": "µM"},
      {"measurement": "TGI", "setting": "OVCAR-5 ovarian", "value": "> 100", "unit": "µM"},
      {"measurement": "TGI", "setting": "OVCAR-8 ovarian", "value": 25.8, "unit": "µM"},
      {"measurement": "TGI", "setting": "RPMI-8226 leukemia", "value": 19, "unit": "µM"},
      {"measurement": "TGI", "setting": "RXF 393 renal", "value": 45.2, "unit": "µM"},
      {"measurement": "TGI", "setting": "RXF-631 renal", "value": 43.7, "unit": "µM"},
      {"measurement": "TGI", "setting": "SF-268 CNS", "value": 57.7, "unit": "µM"},
      {"measurement": "TGI", "setting": "SF-295 CNS", "value": 27.8, "unit": "µM"},
      {"measurement": "TGI", "setting": "SF-539 CNS", "value": 30.2, "unit": "µM"},
      {"measurement": "TGI", "setting": "SK-MEL-2 melanoma", "value": 54.9, "unit": "µM"},
      {"measurement": "TGI", "setting": "SK-MEL-28 melanoma", "value": 21.9, "unit": "µM"},
      {"measurement": "TGI", "setting": "SK-MEL-5 melanoma", "value": 17.9, "unit": "µM"},
      {"measurement": "TGI", "setting": "SN12C renal", "value": 34.2, "unit": "µM"},
      {"measurement": "TGI", "setting": "SNB-19 CNS", "value": 30.6, "unit": "µM"},
      {"measurement": "TGI", "setting": "SNB-75 CNS", "value": 34.3, "unit": "µM"},
      {"measurement": "TGI", "setting": "SNB-78 CNS", "value": 79.9, "unit": "µM"},
      {"measurement": "TGI", "setting": "SR leukemia", "value": "> 100", "unit": "µM"},
      {"measurement": "TGI", "setting": "SW-620 colon", "value": 32.5, "unit": "µM"},
      {"measurement": "TGI", "setting": "TK-10 renal", "value": 23.1, "unit": "µM"},
      {"measurement": "TGI", "setting": "U251 CNS", "value": 33, "unit": "µM"},
      {"measurement": "TGI", "setting": "UACC-257 melanoma", "value": 27.3, "unit": "µM"},
      {"measurement": "TGI", "setting": "UACC-62 melanoma", "value": 21.5, "unit": "µM"},
      {"measurement": "TGI", "setting": "UO-31 renal", "value": "> 100", "unit": "µM"},
      {"measurement": "TGI", "setting": "XF 498 CNS", "value": 38.1, "unit": "µM"}
    ]}
  ]
}
